Literature values, collected in patent US20260284033A1, “COMBINATION THERAPY WITH LP-PLA2 INHIBITOR AND A SECOND AGENT” (SciNeuro Therapeutics Inc., priority 2023, published 2026).

Columns and labels:
[1] = system: BBB leakage animal models
AD patients = details: phase 2, AD patients

SMILES	BBB leakage [1]	vascular dementia pathology [1]	cognitive decline (AD patients)	disease biomarkers (AD patients)	tolerability (AD patients)
CCN(CC)CCN(Cc1ccc(-c2ccc(C(F)(F)F)cc2)cc1)C(=O)Cn1c(SCc2ccc(F)cc2)nc(=O)c2c1CCC2 [darapladib]	reduced BBB leakage	improved vascular dementia pathology	–	–	–
COCCN1CCC(N(Cc2ccc(-c3ccc(C(F)(F)F)cc3)cc2)C(=O)Cn2c(SCc3cccc(F)c3F)cc(=O)c3ccccc32)CC1 [rilapladib]	–	–	slowed down cognitive decline	improved disease biomarkers	well tolerated
